Experiments:
[1] = system: various MRSA strains (NRS21, NRS70, NRS382, NRS404, HFH29568, HFH30495); test: Time-kill assays (FIG. 6); assay type: cell-based, Staphylococcus aureus; conditions: at 24 h
Experimental: Time-kill assay. MRSA strains (NRS21, NRS70, NRS382, NRS404, HFH 29568, and HFH 30495) were grown overnight on tryptic soy agar plate. Bacteria were diluted in Muller-Hinton broth containing 2% NaCl to […] CFU·mL^−1. […] For MEM and CPT, cation-adjusted Muller-Hinton broth without 2% NaCl was used. Aliquots were taken at 0, 3, 6, 9, 12, and 24 h and were diluted serially for bacterial counts. The assay was done in triplicate.

[2] = system: HIP15178 (VRS5), MRSA/VRSA, SCCmec II, bla +; test: MIC determination and potentiation assay (microdilution broth); assay type: cell-based, Staphylococcus aureus; conditions: for MIC: Staphylococcus aureus, HIP15178 (VRS5), agent alone, read-out: MIC
Experimental: (§1) MICs were determined by the microdilution broth method following the Clinical & Laboratory Standards Institute (CLSI) guidelines. […] Experiments were performed in triplicate in 96-well plates with 5×10^5 CFU·mL^−1 of bacteria. […] The MIC was the concentration for which bacterial growth was not observed.

[3] = system: ATCC 29213, MSSA, bla +; test: as above; assay type: cell-based, Staphylococcus aureus; conditions: for MIC: Staphylococcus aureus, ATCC 29213, agent alone, read-out: MIC
Experimental: as §1

[4] = system: LIM2 (NRS36), MRSA, SCCmec I, bla +; test: as above; assay type: cell-based, Staphylococcus aureus; conditions: for MIC: Staphylococcus aureus, LIM2 (NRS36), agent alone, read-out: MIC
Experimental: as §1

[5] = system: JE2, MRSA, SCCmec IV, bla −; test: as above; assay type: cell-based, Staphylococcus aureus; conditions: for MIC: Staphylococcus aureus, MRSA, agent alone
Experimental: as §1

[6] = system: HIP07920 (NRS21), MRSA/VISA, SCCmec IV, bla +; test: as above; assay type: cell-based, Staphylococcus aureus; conditions: for MIC: Staphylococcus aureus, HIP07920 (NRS21), agent alone
Experimental: as §1

[7] = system: COL (NRS100), MRSA, SCCmec I, bla −; test: as above; assay type: cell-based, Staphylococcus aureus; conditions: for MIC: Staphylococcus aureus, COL (NRS100), agent alone, read-out: MIC
Experimental: as §1

[8] = system: NTCT 8325 (NRS77), MSSA, bla −; test: as above; assay type: cell-based, Staphylococcus aureus; conditions: for MIC: Staphylococcus aureus, NTCT 8325 (NRS77), agent alone, read-out: MIC
Experimental: as §1

[9] = system: HIP 133170 (VRS3a), MRSA/VRSA, SCCmec IV, bla +; test: as above; assay type: cell-based, Staphylococcus aureus; conditions: for MIC: Staphylococcus aureus, HIP 133170 (VRS3a), agent alone, read-out: MIC
Experimental: as §1

[10] = system: MW2 (NRS123), MRSA, SCCmec IV, bla +; test: as above; assay type: cell-based; conditions: Staphylococcus aureus; MW2 (NRS123); agent alone; read-out: MIC
Experimental: as §1

[11] = system: FPR3757, MRSA, USA300 clone, SCCmec IV, bla +; test: as above; assay type: cell-based; conditions: Staphylococcus aureus; FPR3757; agent alone; read-out: MIC
Experimental: as §1

[12] = system: CA-347 (NRS648), MRSA, SCCmec II, bla +; test: as above; assay type: cell-based; conditions: Staphylococcus aureus; CA-347 (NRS648); agent alone; read-out: MIC
Experimental: as §1

[13] = system: HIP 07930 (NRS22), MRSA/VISA, SCCmec II, bla +; test: as above; assay type: cell-based; conditions: Staphylococcus aureus; HIP 07930 (NRS22); agent alone; read-out: MIC
Experimental: as §1

[14] = system: SR4035, MRSA, SCCmec IV, bla +; test: as above; assay type: cell-based; conditions: Staphylococcus aureus, SR4035, agent alone, read-out: MIC
Experimental: as §1

[15] = system: AIS 1000505 (VRS10), MRSA, vancomycin-resistant, SCCmec II, bla +; test: as above; assay type: cell-based; conditions: Staphylococcus aureus, AIS 1000505 (VRS10), agent alone, read-out: MIC
Experimental: as §1

[16] = system: 880, MRSA, SCCmec IV, bla +; test: as above; assay type: cell-based; conditions: Staphylococcus aureus, 880, agent alone, read-out: MIC
Experimental: as §1

[17] = system: HIP06297 (NRS17), MRSA, SCCmec II, bla +; test: as above; assay type: cell-based; conditions: Staphylococcus aureus; HIP06297 (NRS17); agent alone; read-out: MIC
Experimental: as §1

[18] = system: HFH 30495, MRSA, SCCmec II, bla +; test: as above; assay type: cell-based; conditions: Staphylococcus aureus, HFH 30495, agent alone, read-out: MIC
Experimental: as §1

[19] = system: LinR#12 (NRS119), MRSA, SCCmec IV, bla +; test: as above; assay type: cell-based; conditions: Staphylococcus aureus; LinR#12 (NRS119); agent alone; read-out: MIC
Experimental: as §1

[20] = system: CO-23 (NRS661), MRSA, SCCmec II, bla +; test: as above; assay type: cell-based; conditions: Staphylococcus aureus; CO-23 (NRS661); agent alone; read-out: MIC
Experimental: as §1

[21] = system: M1712 (NRS127), MRSA, SCCmec II, bla +; test: as above; assay type: cell-based; conditions: Staphylococcus aureus; M1712 (NRS127); agent alone; read-out: MIC
Experimental: as §1

[22] = system: CO-34 (NRS662), MRSA, SCCmec IV, bla +; test: as above; assay type: cell-based; conditions: Staphylococcus aureus; CO-34 (NRS662); agent alone; read-out: MIC
Experimental: as §1

[23] = system: CM05, MRSA, SCCmec I, bla +; test: as above; assay type: cell-based; conditions: Staphylococcus aureus
Experimental: as §1

[24] = system: HT 20020320 (NRS245), MRSA, SCCmec IV, bla +; test: as above; assay type: cell-based; conditions: Staphylococcus aureus; HT 20020320 (NRS245); agent alone; read-out: MIC
Experimental: as §1

[25] = MSSA strain ATCC29213, 4 at 8 mg·L^−1
[26] = strain NTCT8325, 4 at 8 mg·L^−1

Row | SMILES | reduction in bacterial growth by itself [1] | MIC [2] [µg/mL] | MIC [3] [µg/mL] | MIC [4] [µg/mL] | MIC [5] [µg/mL] | MIC [6] [µg/mL] | MIC [7] [µg/mL] | MIC [8] [µg/mL] | MIC [9] [µg/mL] | MIC [10] [µg/mL] | MIC [11] [µg/mL] | MIC [12] [µg/mL] | MIC [13] [µg/mL] | MIC [14] [µg/mL] | MIC [15] [µg/mL] | MIC [16] [µg/mL] | MIC [17] [µg/mL] | MIC [18] [µg/mL] | MIC [19] [µg/mL] | MIC [20] [µg/mL] | other results
1 | CCO/N=C(\C(=O)N[C@@H]1C(=O)N2C(C(=O)[O-])=C(Sc3nc(-c4cc[n+](C)cc4)cs3)CS[C@H]12)c1nsc(N)n1 [CPT, ceftaroline] | Neither OXA, MEM, CPT, or compound 4 by itself showed reduction in bacterial growth | 1 | 0.06 | 1 | 1 | 0.5 | 1 | 0.25 | 1 | 1 | 0.5 | 1 | 0.25 | 1 | 1 | 1 | 1 | 1 | 1 | 1 | MIC [21]: 1 µg/mL; MIC [22]: 1 µg/mL; MIC [23]: 2 µg/mL; MIC [24]: 0.5 µg/mL
2 | N#Cc1ccc2nc(SCB(O)O)n(Cc3ccc(C(F)(F)F)cc3C(F)(F)F)c2c1 [Compound 4, (((1-(2,4-bis(trifluoro-methyl)benzyl)-6-cyano-1H-benzo[d]imidazol-2-yl)thio)methyl)boronic acid] | Neither OXA, MEM, CPT, or compound 4 by itself showed reduction in bacterial growth | 32 | 16 | 16 | 16 | 8 | 32 | 16 | 16 | 16 | 16 | 16 | 16 | 16 | 16 | 16 | 32 | 16 | 16 | 32 | fold lowering of MEM MIC by 4 ([2]; vancomycin-resistant MRSA, Table 1 entry 13 (VRS5)): 64 fold; fold lowering of MEM MIC by 4 [3, 25]: 2 fold; fold lowering of OXA MIC by 4 [3, 25]: 4 fold; fold lowering of MEM MIC by 4 ([4]; strain NRS36, 4 at 8 mg·L^−1): 512 fold; fold lowering of OXA MIC by 4 ([4]; strain NRS36, 4 at 8 mg·L^−1): 64 fold; fold lowering of MEM MIC by 4 ([5]; 4 at 8 mg·L^−1): 64 fold; fold reduction of OXA MIC by 4 ([5]; 4 at 8 mg·L^−1): 2 fold; fold lowering of FOX MIC by 4 ([6]; strain NRS21, 4 at 4 mg·L^−1): 2048 fold; fold reduction of OXA MIC by 4 ([6]; strain NRS21, 4 at 4 mg·L^−1): 4096 fold; fold lowering of MEM MIC by 4 ([7]; COL, 4 at 8 mg·L^−1): 16 fold; fold reduction of OXA MIC by 4 ([7]; COL, 4 at 8 mg·L^−1): 2 fold; effect of 4 on the OXA MIC [8, 26]: no effect; fold lowering of MEM MIC by 4 [8, 26]: 2 fold; fold lowering of MEM MIC by 4 ([9]; vancomycin-resistant MRSA, Table 1 entry 19 (VRS3a)): 256 fold; MIC [21]: 16 µg/mL; MIC [22]: 16 µg/mL; MIC [23]: 32 µg/mL; MIC [24]: 16 µg/mL
